Results reported in PMC6544120, “Stimuli-responsive membrane activity of cyclic-peptide–polymer conjugates” (Chemical Science, 2019).

Experiment: Calcein dye leakage assay
Format: biochemical
Conditions: pure DTT 30 mM without CPNT
Procedure: This was tested by studying the interaction of our CPNT with synthetic liposomes. A mixture of phosphatidylethanolamine and phosphatidylglycerol was used to simulate the cytosolic membrane of E. coli.[35] Vesicles were loaded with self-quenching concentrations of a fluorescent dye (calcein). This allows to detect disruption of the bilayer, as dye release from the liposomes and the resulting dilution leads to an increase in fluorescence (Scheme S4 ^†).
The fit (Figure S25) was performed with R, Rg, N agg, l and N as adjustable parameter.
Table S2. Fitting parameters for 24 using a form factor of a micelle with a spherical core […]
Rg, corona b 16.6 Å parameters
Vcore (single unit) c 300 Å3 […]
Background subtracted 5 × 10 -2 cm-1 a The radius of the core was calculated from the volume of the whole core given by the volume of the core of a single unit multiplied with the number of aggregation (N agg); b Radius of gyration (R g) of a single chain in the corona; c The Volume of a single cyclic peptide in the core or polymer corona (PEtOx) was estimated from the Mn, divided by the Avogadro constant and assuming a density of 1 g/cm 3, d The scattering lengths density (SLD) of the materials was calculated using the calculator given in SASfit; […]
Formation of vesicles. […]

O[C@@H](CS)[C@@H](O)CS (racemic) [DTT, 1,4-dithiothreitol]
Effect of DTT alone on fluorescence intensity (calcein release): no effect on the fluorescence intensity
